The values below come from the supplement of paper PMC12137928.

Where a name gives a salt, the structure may show the parent alone.

The subject of experiment [1] is HCT116. Particulars: 72 h. The procedure, abridged: (§1)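 In 1536-well plates, 250 HCT116 cells per well were seeded and left for 5 h to attach. Luminescence from CellTiter-Glo was set against vehicle (0%) and positive control (-100%), and pattern correction was applied. IC50 and maximal efficacy come from four-parameter Hill fitting.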
Experiment [2] relates to HCT116. The experiment can be described thus: efficacy (maximum % inhibition of viability vs DMSO); higher = more cytotoxic. The note with it: 72 h. The procedure, abridged: as §1

`CCCCCCCCCCCCCCCC[n+]1ccccc1` [Cetylpyridinium bromide]: the IC50 cell viability with HCT116 [1] (ICRF193 0 nM) and in the experiment on HCT116 [1] (ICRF193 200 nM) was 2.59 µM each time. Moreover, the results for the efficacy in the experiment with HCT116 [2] (ICRF193 0 nM) and with HCT116 [2] (ICRF193 200 nM) were 90.6% and 90.4%, respectively.

Regarding `COc1ccc2c(c1)OC(C)(C)C(c1ccccc1)C2c1ccc(OCCN2CCCC2)cc1` (stereo unspecified) [Ormeloxifene], the IC50 cell viability in the experiment with HCT116 [1] (ICRF193 0 nM) is 20.6 µM; in the experiment on HCT116 [1] (ICRF193 200 nM) it was 18.3 µM. Further, the efficacy in the experiment with HCT116 [2] (ICRF193 0 nM) is 91%; with HCT116 [2] (ICRF193 200 nM), 81.5%.

As for `CC(=O)N1CCN(c2ccc(OCC3COC(Cn4ccnc4)(c4ccc(Cl)cc4Cl)O3)cc2)CC1` (stereo unspecified) [Ketoconazole], the IC50 cell viability was more than 45.8 µM in the experiment on HCT116 [1] (ICRF193 0 nM) and 13 µM in the experiment with HCT116 [1] (ICRF193 200 nM). For the same compound, in the experiment on HCT116 [2] (ICRF193 200 nM), the efficacy turned out to be 55.8%.

As to `CCN(CC)CCNC(=O)c1c(C)[nH]c(/C=C2\C(=O)Nc3ccc(F)cc32)c1C` [Sunitinib malate], the IC50 cell viability with HCT116 [1] (ICRF193 0 nM) came out at 18.3 µM; in the experiment with HCT116 [1] (ICRF193 200 nM) it was 16.4 µM. In addition, the efficacy was 108% with HCT116 [2] (ICRF193 0 nM) and 111% with HCT116 [2] (ICRF193 200 nM).

Turning to `CN1CCN2c3ccccc3Cc3ccccc3C2C1` (stereo unspecified) [Mianserin], the IC50 cell viability with HCT116 [1] (ICRF193 0 nM) was determined as 23.1 µM; with HCT116 [1] (ICRF193 200 nM) it was 29.1 µM. Also, the efficacy came to 51% in the experiment with HCT116 [2] (ICRF193 0 nM) and 62% in the experiment with HCT116 [2] (ICRF193 200 nM).

Regarding `COc1cc2c(cc1O)CCN[C@]21CS[C@@H]2c3c(OC(C)=O)c(C)c4c(c3[C@H](COC1=O)N1[C@@H]2[C@H]2c3c(cc(C)c(OC)c3O)C[C@@H]([C@@H]1O)N2C)OCO4` [Trabectedin], the IC50 cell viability with HCT116 [1] (ICRF193 0 nM) was 0.0119 µM; in the experiment with HCT116 [1] (ICRF193 200 nM), 0.00473 µM. Also, the efficacy was determined as 57.2% in the experiment on HCT116 [2] (ICRF193 0 nM) and 74.4% in the experiment with HCT116 [2] (ICRF193 200 nM).

For `Oc1c(Cl)cc(Cl)c(Cl)c1Cc1c(O)c(Cl)cc(Cl)c1Cl` [Hexachlorophene], the IC50 cell viability turned out to be 2.59 µM in the experiment with HCT116 [1] (ICRF193 0 nM) and 6.51 µM in the experiment with HCT116 [1] (ICRF193 200 nM). In addition, the efficacy was 82.5% with HCT116 [2] (ICRF193 0 nM) and 45.6% with HCT116 [2] (ICRF193 200 nM).

On to `CCc1nc(N)nc(N)c1-c1ccc(Cl)cc1` [Pyrimethamine], for which the IC50 cell viability amounted to 11.6 µM in the experiment with HCT116 [1] (ICRF193 0 nM) and 9.2 µM in the experiment on HCT116 [1] (ICRF193 200 nM). In addition, the efficacy worked out at 106% in the experiment with HCT116 [2] (ICRF193 0 nM) and 93.4% in the experiment with HCT116 [2] (ICRF193 200 nM).

In the case of `C[C@]12CCC(=O)C=C1[C@@H]1C[C@@H]1[C@H]1[C@@H]3[C@@H]4C[C@@H]4[C@@]4(CCC(=O)O4)[C@@]3(C)CC[C@@H]12` [Drospirenone], the values for the IC50 cell viability with HCT116 [1] (ICRF193 0 nM) and in the experiment with HCT116 [1] (ICRF193 200 nM) were 18.3 µM and 23.1 µM, respectively. Further, the results for the efficacy in the experiment with HCT116 [2] (ICRF193 0 nM) and in the experiment on HCT116 [2] (ICRF193 200 nM) were 51.3% and 49.1%, respectively.

Turning to `C[C@H]1O[C@@H](O[C@H]2CC[C@@]3(C)[C@H](CC[C@@H]4[C@@H]3C[C@@H](O)[C@]3(C)[C@@H](C5=CC(=O)OC5)CC[C@]43O)C2)C[C@H](O)[C@@H]1O[C@H]1C[C@H](O)[C@H](O[C@H]2C[C@H](O)[C@H](O[C@@H]3O[C@H](CO)[C@@H](O)[C@H](O)[C@H]3O)[C@@H](C)O2)[C@@H](C)O1` [Deslanoside], the IC50 cell viability with HCT116 [1] (ICRF193 0 nM) and with HCT116 [1] (ICRF193 200 nM) was 0.231 µM in each case. Also, the efficacy in the experiment with HCT116 [2] (ICRF193 0 nM) is 85.6%; in the experiment on HCT116 [2] (ICRF193 200 nM), 78.1%.

In the case of `CC(=O)O[C@@]12CO[C@@H]1C[C@H](O)[C@@]1(C)C(=O)[C@H](O)C3=C(C)[C@@H](OC(=O)[C@H](O)[C@@H](NC(=O)OC(C)(C)C)c4ccccc4)C[C@@](O)([C@@H](OC(=O)c4ccccc4)[C@H]21)C3(C)C` [Docetaxel], the IC50 cell viability came to 0.0103 µM with HCT116 [1] (ICRF193 0 nM) and 0.0146 µM in the experiment on HCT116 [1] (ICRF193 200 nM). Besides, the efficacy is 60.8% in the experiment on HCT116 [2] (ICRF193 0 nM) and 56.5% with HCT116 [2] (ICRF193 200 nM).

For `O=C(O)C[C@H](O)C[C@H](O)/C=C/c1c(C2CC2)nc2ccccc2c1-c1ccc(F)cc1` [Pitavastatin Calcium], the results for the IC50 cell viability in the experiment on HCT116 [1] (ICRF193 0 nM) and with HCT116 [1] (ICRF193 200 nM) were 7.3 µM and 3.66 µM, respectively. The efficacy in the experiment with HCT116 [2] (ICRF193 0 nM) came out at 100%; in the experiment with HCT116 [2] (ICRF193 200 nM), 110%.

As for `O=C(Nc1ccc([N+](=O)[O-])cc1)Nc1ccc([N+](=O)[O-])cc1` [4,4'-Dinitrodiphenylurea], the IC50 cell viability in the experiment with HCT116 [1] (ICRF193 0 nM) was more than 45.8 µM; in the experiment on HCT116 [1] (ICRF193 200 nM), 29.1 µM. The compound further came in with an efficacy with HCT116 [2] (ICRF193 200 nM) of 55.9%.

Consider `COc1cc2nccc(Oc3ccc(NC(=O)C4(C(=O)Nc5ccc(F)cc5)CC4)cc3)c2cc1OC` [Cabozantinib], for which the IC50 cell viability in the experiment with HCT116 [1] (ICRF193 0 nM) came out at 20.6 µM; in the experiment on HCT116 [1] (ICRF193 200 nM), 16.4 µM. The efficacy in the experiment on HCT116 [2] (ICRF193 0 nM) was determined as 58.4%; in the experiment with HCT116 [2] (ICRF193 200 nM) it was 69.8%.

On to `CNCCCCOc1ccccc1Cc1ccccc1` [Bifemelane], for which the IC50 cell viability came out at 20.6 µM in the experiment on HCT116 [1] (ICRF193 0 nM) and 14.6 µM in the experiment on HCT116 [1] (ICRF193 200 nM). The efficacy in the experiment with HCT116 [2] (ICRF193 0 nM) came out at 40.6%; in the experiment on HCT116 [2] (ICRF193 200 nM) it was 49.6%.

Take `COC(=O)Nc1nc2cc(C(=O)c3ccccc3)ccc2[nH]1` [Mebendazole]: the values for the IC50 cell viability in the experiment with HCT116 [1] (ICRF193 0 nM) and in the experiment with HCT116 [1] (ICRF193 200 nM) were 20.6 µM and 0.92 µM, respectively. Moreover, the efficacy is 55.3% in the experiment on HCT116 [2] (ICRF193 0 nM) and 61.9% with HCT116 [2] (ICRF193 200 nM).

Consider `CC(C)COCC(CN(Cc1ccccc1)c1ccccc1)N1CCCC1` (stereo unspecified) [Bepridil], for which the figures for the IC50 cell viability with HCT116 [1] (ICRF193 0 nM) and in the experiment on HCT116 [1] (ICRF193 200 nM) were 20.6 µM and 29.1 µM, respectively. Further, the efficacy was 85.1% in the experiment with HCT116 [2] (ICRF193 0 nM) and 73.2% with HCT116 [2] (ICRF193 200 nM).

As to `C[C@H]1O[C@@H](O[C@H]2[C@@H](O)C[C@H](O[C@H]3[C@@H](O)C[C@H](O[C@H]4CC[C@@]5(C)[C@H](CC[C@@H]6[C@@H]5CC[C@]5(C)[C@@H](C7=CC(=O)OC7)CC[C@]65O)C4)O[C@@H]3C)O[C@@H]2C)C[C@H](O)[C@@H]1O` [DIGITOXIN], the IC50 cell viability with HCT116 [1] (ICRF193 0 nM) was 0.0651 µM; in the experiment with HCT116 [1] (ICRF193 200 nM), more than 45.8 µM. Also, the efficacy in the experiment on HCT116 [2] (ICRF193 0 nM) stood at 73.1%.

In the case of `CCCCCCCC(=O)CC[C@@H]1[C@@H](C/C=C\CCCC(=O)OC(C)C)[C@@H](O)C[C@H]1O` [Unoprostone isopropyl ester], the results for the IC50 cell viability in the experiment on HCT116 [1] (ICRF193 0 nM) and in the experiment with HCT116 [1] (ICRF193 200 nM) were more than 45.8 µM and 18.3 µM, respectively. In the experiment with HCT116 [2] (ICRF193 200 nM), this compound showed an efficacy of 42.2%.

For `C[C@H](Oc1cc(-c2cnn(C3CCNCC3)c2)cnc1N)c1c(Cl)ccc(F)c1Cl` [(S)-Crizotinib], the IC50 cell viability came out at 20.6 µM in the experiment on HCT116 [1] (ICRF193 0 nM) and 18.3 µM in the experiment with HCT116 [1] (ICRF193 200 nM). The figures for the efficacy with HCT116 [2] (ICRF193 0 nM) and in the experiment with HCT116 [2] (ICRF193 200 nM) were 89.7% and 91.2%, respectively.

As for `Nc1nc2ccc(OC(F)(F)F)cc2s1` [Riluzole], the IC50 cell viability is more than 45.8 µM in the experiment on HCT116 [1] (ICRF193 0 nM) and 23.1 µM with HCT116 [1] (ICRF193 200 nM). In addition, in the experiment with HCT116 [2] (ICRF193 200 nM), the efficacy was 46.2%.

`Cc1cc(Nc2ncc(Cl)c(Nc3ccccc3S(=O)(=O)C(C)C)n2)c(OC(C)C)cc1C1CCNCC1` [Ceritinib]: the IC50 cell viability is 18.3 µM with HCT116 [1] (ICRF193 0 nM) and 29.1 µM in the experiment with HCT116 [1] (ICRF193 200 nM). The efficacy was 108% in the experiment with HCT116 [2] (ICRF193 0 nM) and 105% with HCT116 [2] (ICRF193 200 nM).

As for `Cc1c(O)cccc1C(=O)N[C@@H](CSc1ccccc1)[C@H](O)CN1C[C@H]2CCCC[C@H]2C[C@H]1C(=O)NC(C)(C)C` [Nelfinavir mesylate], the IC50 cell viability in the experiment with HCT116 [1] (ICRF193 0 nM) was 29.1 µM; in the experiment with HCT116 [1] (ICRF193 200 nM), 20.6 µM. Moreover, the efficacy came to 104% in the experiment on HCT116 [2] (ICRF193 0 nM) and 106% in the experiment on HCT116 [2] (ICRF193 200 nM).

With `CCCCCCCCc1ccc(CCC(N)(CO)CO)cc1` [Fingolimod hydrochloride], the IC50 cell viability in the experiment on HCT116 [1] (ICRF193 0 nM) was found to be 29.1 µM; with HCT116 [1] (ICRF193 200 nM) it was 20.6 µM. In addition, the results for the efficacy with HCT116 [2] (ICRF193 0 nM) and in the experiment with HCT116 [2] (ICRF193 200 nM) were 108% and 100%, respectively.
